According to publication PMC10313671, “Accelerating the prediction and discovery of peptide hydrogels with human-in-the-loop” (Nature Communications, 2023):
Where a SMILES comes first, the peptide text is derived from it.

What was measured:
[1] = Peptide hydrogel formation, vial-inverting method; type: physicochemical; design: key to EXP / GELATION: 0: no hydrogel; 1: hydrogel; details: for State: ultrasonication, standing 48 h; for State / GELATION / hydrogel formation (in words): vial-inverting method; for Concentration: concentration at which the state was recorded: lowest of 30, 60, 90, 120 mM that gave a gel, 120 mM for non-gelating peptides; for GELATION: 1 = hydrogel, 0 = no hydrogel; for hydrogel formation (in words): representative hydrogels pH between 7.0 to 7.5
Method in brief: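 Gelation judged by vial inversion, a non-flowing self-supporting sample counting as hydrogel, after 48 h standing. Peptide in water at 30 mM first, escalating to 60, 90 and 120 mM if no gel; pH set to 6.5–8.5 by stepwise 1 N NaOH, each step sonicated briefly.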

[2] = Transmission electron microscope (negative staining) of peptide assemblies; details: for Morphology: TEM, negative staining with uranyl acetate, 120 kV; for morphology by TEM (in words): aqueous solution or hydrogel, negative staining
Protocol: We used the negative staining technique to observe the morphologies formed by peptides. A micropipette was used to load 10 μL of sample solution to a carbon-coated copper grid, and we used a piece of filter paper to remove the excess solution. After rinsing the grid with the deionized water, we used uranyl acetate to stain the sample for 1 minute and then rinsed the grid with deionized water again.

[3] = 120 mM peptide (highest tested) in ultrapure water, pH 6.5-8.5 (1 N NaOH), precipitate, sol, suspension = no gel
[4] = 30 mM peptide in ultrapure water, pH adjusted to 6.5-8.5 with 1 N NaOH, concentration raised 30/60/90/120 mM until gelation
[5] = 60 mM peptide in ultrapure water, pH 6.5-8.5 (1 N NaOH), no gel at 30 mM

Row | SMILES | State [1, 3] | Concentration [1] [µM] | GELATION ([1]; peptide concentration 120 mM) | Morphology ([2]; line of the table gives 120 mM) | other results
1 | N[C@@H](CO)C(=O)N[C@@H](Cc1c[nH]c2ccccc12)C(=O)N[C@@H](Cc1ccc(O)cc1)C(=O)N[C@@H](Cc1ccccc1)C(=O)O [SWYF] (H-SWYF-OH) | gel | 120000 | 1 | fibre | 
2 | N[C@@H](CO)C(=O)N[C@@H](Cc1ccc(O)cc1)C(=O)N[C@@H](Cc1ccccc1)C(=O)N[C@@H](Cc1ccccc1)C(=O)O [SYFF] (H-SYFF-OH) |  | 30000 |  |  | State [1, 4]: gel; GELATION ([1]; peptide concentration 30 mM): 1; Morphology ([2]; line of the table gives 30 mM): fibre
3 | CC(C)[C@H](NC(=O)[C@H](C)NC(=O)[C@@H](N)[C@@H](C)O)C(=O)N[C@@H](Cc1ccccc1)C(=O)O [TAVF] (H-TAVF-OH) | gel | 120000 | 1 | sheet | 
4 | C[C@@H](O)[C@H](N)C(=O)NCC(=O)N[C@@H](Cc1ccccc1)C(=O)N[C@@H](Cc1ccccc1)C(=O)O [TGFF] (H-TGFF-OH) | gel | 120000 | 1 | aggregates | 
5 | C[C@@H](O)[C@H](N)C(=O)N[C@@H](CCCNC(=N)N)C(=O)N[C@@H](Cc1ccccc1)C(=O)N[C@@H](CO)C(=O)O [TRFS] (H-TRFS-OH) | suspension | 120000 |  | particle | morphology by TEM (in words) [2]: aggregates with different sizes
6 | C[C@@H](O)[C@H](N)C(=O)N[C@H](C(=O)N[C@H](C(=O)N[C@H](C(=O)O)[C@@H](C)O)[C@@H](C)O)[C@@H](C)O [TTTT] (H-TTTT-OH) | suspension | 120000 | 0 | aggregates | 
7 | CC(C)[C@H](N)C(=O)N[C@@H](C)C(=O)N[C@@H](Cc1ccccc1)C(=O)N[C@@H](Cc1ccc(O)cc1)C(=O)O [VAFY] (H-VAFY-OH) | gel | 120000 | 1 | sphere | 
8 | CC(C)C[C@H](NC(=O)[C@H](C)NC(=O)[C@@H](N)C(C)C)C(=O)N[C@@H](CCC(=O)O)C(=O)O [VALE] (H-VALE-OH) | suspension | 120000 | 0 | aggregates | 
9 | CC(C)C[C@H](NC(=O)[C@H](C)NC(=O)[C@@H](N)C(C)C)C(=O)N[C@H](C(=O)O)C(C)C [VALV] (H-VALV-OH) | sol | 120000 | 0 | aggregates | EXP ([1]; experimental gelation result of the synthesized peptide): 0
10 | CC(C)[C@H](N)C(=O)N[C@@H](Cc1ccccc1)C(=O)N[C@@H](Cc1c[nH]cn1)C(=O)N[C@@H](CC(N)=O)C(=O)O [VFHN] (H-VFHN-OH) | suspension | 120000 | 0 | aggregates | 
11 | CSCC[C@H](NC(=O)[C@H](CCSC)NC(=O)[C@H](Cc1ccccc1)NC(=O)[C@@H](N)C(C)C)C(=O)O [VFMM] (H-VFMM-OH) | gel | 120000 | 1 | fibre | 
12 | CC(C)[C@H](N)C(=O)N[C@@H](Cc1ccccc1)C(=O)N[C@H](C(=O)N[C@@H](Cc1ccccc1)C(=O)O)C(C)C [VFVF] (H-VFVF-OH) |  | 30000 |  |  | State [1, 4]: gel; GELATION ([1]; peptide concentration 30 mM): 1; Morphology ([2]; line of the table gives 30 mM): sheet
13 | CC[C@H](C)[C@H](NC(=O)[C@H](CC(C)C)NC(=O)[C@@H](NC(=O)[C@@H](N)C(C)C)[C@@H](C)CC)C(=O)O [VILI] (H-VILI-OH) |  | 60000 |  |  | State [1, 5]: gel; GELATION ([1]; peptide concentration 60 mM): 1; Morphology ([2]; line of the table gives 60 mM): hybrid(sheet+fibre)
14 | CC(C)C[C@H](NC(=O)[C@@H](NC(=O)[C@H](CC(C)C)NC(=O)[C@@H](N)C(C)C)C(C)C)C(=O)O [VLVL] (H-VLVL-OH) | gel | 120000 | 1 | sheet | 
15 | CC(C)C[C@H](NC(=O)[C@@H](N)C(C)C)C(=O)N[C@H](C(=O)N[C@H](C(=O)O)C(C)C)C(C)C [VLVV] (H-VLVV-OH) | gel | 120000 | 1 | sheet | 
16 | CC(C)[C@H](N)C(=O)N[C@@H](CO)C(=O)N[C@@H](Cc1c[nH]c2ccccc12)C(=O)N[C@@H](Cc1ccc(O)cc1)C(=O)O [VSWY] (H-VSWY-OH) | precipitate | 120000 | 0 | particle | 
17 | CC(C)[C@H](N)C(=O)N[C@H](C(=O)N[C@H](C(=O)N[C@H](C(=O)O)C(C)C)C(C)C)C(C)C [VVVV] (H-VVVV-OH) |  | 60000 |  |  | State [1, 5]: gel; GELATION ([1]; peptide concentration 60 mM): 1; Morphology ([2]; line of the table gives 60 mM): sheet
18 | CC[C@H](C)[C@H](NC(=O)[C@H](Cc1c[nH]c2ccccc12)NC(=O)[C@@H](N)C(C)C)C(=O)N[C@H](C(=O)O)[C@@H](C)O [VWIT] (H-VWIT-OH) | precipitate | 120000 | 0 | aggregates | 
19 | CC(C)[C@H](N)C(=O)N[C@@H](Cc1ccc(O)cc1)C(=O)N[C@H](C(=O)N[C@@H](Cc1ccccc1)C(=O)O)[C@@H](C)O [VYTF] (H-VYTF-OH) | sol | 120000 | 0 | particle | 
20 | C[C@H](NC(=O)[C@@H](N)Cc1c[nH]c2ccccc12)C(=O)N[C@@H](Cc1ccccc1)C(=O)N[C@@H](Cc1ccc(O)cc1)C(=O)O [WAFY] (H-WAFY-OH) |  | 60000 |  |  | State [1, 5]: gel; GELATION ([1]; peptide concentration 60 mM): 1; Morphology ([2]; line of the table gives 60 mM): fibre
21 | CC(C)C[C@H](NC(=O)[C@H](C)NC(=O)[C@@H](N)Cc1c[nH]c2ccccc12)C(=O)N[C@@H](Cc1c[nH]c2ccccc12)C(=O)O [WALW] (H-WALW-OH) |  | 30000 | 1 |  | State [1, 4]: gel; Morphology ([2]; line of the table gives 30 mM): fibre
22 | CC(C)[C@H](NC(=O)[C@@H](NC(=O)[C@H](C)NC(=O)[C@@H](N)Cc1c[nH]c2ccccc12)C(C)C)C(=O)O [WAVV] (H-WAVV-OH) |  | 60000 |  |  | State [1, 5]: gel; GELATION ([1]; peptide concentration 60 mM): 1; Morphology ([2]; line of the table gives 60 mM): fibre
23 | C[C@H](NC(=O)[C@@H](N)Cc1c[nH]c2ccccc12)C(=O)N[C@@H](Cc1ccc(O)cc1)C(=O)N[C@@H](Cc1ccccc1)C(=O)O [WAYF] (H-WAYF-OH) |  | 30000 |  |  | State [1, 4]: gel; GELATION ([1]; peptide concentration 30 mM): 1; Morphology ([2]; line of the table gives 30 mM): fibre
24 | N[C@@H](Cc1c[nH]c2ccccc12)C(=O)N[C@@H](CCC(=O)O)C(=O)N[C@@H](Cc1ccccc1)C(=O)N[C@@H](Cc1ccccc1)C(=O)O [WEFF] (H-WEFF-OH) |  | 30000 |  |  | State [1, 4]: gel; GELATION ([1]; peptide concentration 30 mM): 1; hydrogel formation (in words) [1]: hydrogels; Morphology ([2]; line of the table gives 30 mM): fibre; morphology by TEM (in words) [2]: entangled nanofibers
25 | N[C@@H](Cc1c[nH]c2ccccc12)C(=O)N[C@@H](Cc1ccccc1)C(=O)N[C@@H](Cc1c[nH]cn1)C(=O)N1CCC[C@H]1C(=O)O [WFHP] (H-WFHP-OH) | sol | 120000 | 0 | aggregates | 
26 | CSCC[C@H](NC(=O)[C@H](CCSC)NC(=O)[C@H](Cc1ccccc1)NC(=O)[C@@H](N)Cc1c[nH]c2ccccc12)C(=O)O [WFMM] (H-WFMM-OH) |  | 30000 |  |  | State [1, 4]: gel; GELATION ([1]; peptide concentration 30 mM): 1; Morphology ([2]; line of the table gives 30 mM): fibre
27 | CC[C@H](C)[C@H](NC(=O)[C@@H](NC(=O)[C@@H](N)Cc1c[nH]c2ccccc12)[C@@H](C)CC)C(=O)N[C@@H](Cc1ccccc1)C(=O)O [WIIF] (H-WIIF-OH) |  | 30000 |  |  | State [1, 4]: gel; GELATION ([1]; peptide concentration 30 mM): 1; Morphology ([2]; line of the table gives 30 mM): fibre
28 | NCCCC[C@H](NC(=O)[C@@H](N)Cc1c[nH]c2ccccc12)C(=O)N[C@@H](Cc1ccccc1)C(=O)N[C@@H](Cc1ccccc1)C(=O)O [WKFF] (H-WKFF-OH) |  | 60000 |  |  | State [1, 5]: gel; GELATION ([1]; peptide concentration 60 mM): 1; hydrogel formation (in words) [1]: hydrogels; morphology by TEM (in words) [2]: entangled nanofibers
29 | CC(C)C[C@H](NC(=O)[C@@H](N)Cc1c[nH]c2ccccc12)C(=O)N[C@H](C(=O)N[C@@H](Cc1c[nH]c2ccccc12)C(=O)O)C(C)C [WLVW] (H-WLVW-OH) |  | 90000 |  |  | State ([1]; 90 mM peptide in ultrapure water, pH 6.5-8.5 (1 N NaOH), no gel at lower concentrations): gel; GELATION ([1]; peptide concentration 90 mM): 1; Morphology ([2]; line of the table gives 90 mM): fibre
30 | N[C@@H](Cc1c[nH]c2ccccc12)C(=O)N1CCC[C@H]1C(=O)N[C@@H](Cc1ccc(O)cc1)C(=O)N[C@@H](Cc1ccc(O)cc1)C(=O)O [WPYY] (H-WPYY-OH) | precipitate | 120000 | 0 | sphere | hydrogel formation (in words) [1]: cannot
